Structures can show the parent of a compound that is named as a salt.

This passage reports melting point results from patent US20030176445A1, “Substituted 1,4-dihydropyridine compounds as bradykinin antagonists” (Pfizer Inc., priority 1999, published 2003).

For the compound `CCCCC1(O)C2CCC1CC(N1CCN(C(=O)CC3=C(C(=O)OC)C(c4c(Cl)cccc4Cl)C(C(=O)OC)=C(CCc4nccs4)N3)CC1)C2` (stereo not drawn) (as salt: hydrochloride) [Example 6, Dimethyl 4-(2,6-dichlorophenyl)-2-[2-[4-(8-butyl-8-hydroxybicyclo[3.2.1]oct-3-yl)-1-piperazinyl]-2-oxoethyl]-6-[2-(1,3-thiazol-2-yl)ethyl]-1,4-dihydro-3,5-pyridinedicarboxylate], the melting point was 174 to 177 °C (dec.).
`COC(=O)C1=C(CCc2nccs2)NC(CC(=O)N2CCN(C3CC4CCC(C3)C4(O)C(C)C)CC2)=C(C(=O)OC)C1c1c(Cl)cccc1Cl` (stereo not drawn) (as salt: hydrochloride) [Example 7, Dimethyl 4-(2,6-dichlorophenyl)-2-[2-[4-(8-hydroxy-8-isopropylbicyclo[3.2.1]oct-3-yl)-1-piperazinyl]-2-oxoethyl]-6-[2-(1,3-thiazol-2-yl)ethyl]-1,4-dihydro-3,5-pyridinedicarboxylate]: the melting point is 178 to 180 °C (dec.).
Regarding `COC(=O)C1=C(CCc2nccs2)NC(CC(=O)N2CCN(C3CC4CC(=O)CC4C3)CC2)=C(C(=O)OC)C1c1c(Cl)cccc1Cl` (stereo not drawn) (as salt: hydrochloride) [Example 10, Dimethyl 4-(2,6-dichlorophenyl)-2-[2-oxo-2-[4-(5-oxooctahydro-2-pentalenyl)-1-piperazinyl]ethyl]-6-(2-(1,3-thiazol-2-yl)ethyl)-1,4-dihydro-3,5-pyridinedicarboxylate], the melting point is 214 to 220 °C (dec.).
